The record followed here is US12083105B2, “Compositions and methods for treating adult-onset neuronal ceroid lipofuscinosis (Kufs disease)” (CORNELL UNIVERSITY, priority 2020, dated 2024).

Each structure is given as a SMILES string.

For assay [1], the system named is CSPα^L115R and CSPα^L116Δ. Description: CSPα oligomerization and palmitoylation in CSPα−/− primary cortical neurons expressing ANCL mutants (SDS-PAGE, quantitative immunoblotting). To be noted: 200 μM, 72 h, FIG. 3D; for oligomerization of CSPα^L115R and CSPα^L116Δ: vs vehicle (0.1% DMSO); for palmitoylation of CSPα^L115R and CSPα^L116Δ: vs vehicle. It is filed as cell-based, mice. (In western blotting, separated proteins are transferred to a membrane and probed.)

The next assay relates to SNAP-25. Put plainly: SNAP-25 levels in total lysate of CSPα−/− primary cortical neurons (quantitative immunoblotting, β-actin normalization). The assay is classed as cell-based, mice. To be noted: 200 μM, 72 h, FIG. 3D; for augmentation of SNAP-25 levels: neurons expressing CSPα^L115R and CSPα^L116Δ; for SNAP-25 levels: neurons expressing CSPα^WT or SSPα. From the text:
For the experiments shown in FIGS. 3A-3E, primary cortical neurons from neonatal CSPα^−/− mice were infected with lentiviruses expressing Myc-tagged CSPα^WT, CSPα^L115R, CSPα^L116Δ, SSPα, or empty lentivirus (Control) on 7 days in vitro (DIV) and examined on 17 DIV. […] The lentivirus infected cells were stained using antibodies against Myc (green), somatodendritic marker MAP2 (red), and counterstained with nuclear stain DAPI (blue). […] Immunoprecipitation (IP) for SNAP-25 was followed by quantitative immunoblotting of the co-immunoprecipitated (co-IP'd) CSPα (top blot), and normalized to the IP'd SNAP-25 (bottom blot). IP: Control=sham IP without IgG. Palm=palmitoylated. […] The mutant CSPα signal was normalized to the amount of immunoprecipitated wilt type CSPα. N.D.=not detected. Representative data from of n=4 shown. […] Immunoprecipitation using anti-synaptobrevin-2 (Syb-2) antibody was followed by quantitative immunoblotting of co-IP'd SNARE-complex partners syntaxin-1 (Synt-1) and SNAP-25. IP: Control=sham IP with plain rabbit serum. […] The Synt-1 signal was normalized to the amount of each normalized to the IP'd Syb-2. Representative data from of n=4 shown. […] The SNAP-25 signal was normalized to the amount of each normalized to the IP'd Syb-2. For the experiments shown in FIGS. 3D-3E, CSPα^−/− primary cortical neurons were lentivirally infected to express Myc-tagged CSPα^WT, CSPα^L115R, CSPα^L116Δ, SSPα, or empty lentivirus (Control) on 5 DIV, and were treated on 12 DIV with vehicle (-=0.1% DMSO), or iron chelators deferiprone (L1=200 μM) and deferoxamine (Dfx=200 μM) for 72 h. […] Cell extracts were separated by SDS-PAGE, and subjected to quantitative immunoblotting using anti-SNAP-25 antibody and β-actin for normalization. To measure palmitoylation, oligomers were disrupted by lysing neurons in 0.1 N HCl plus 0.1% Triton X-100 for 20 min at 4° C., followed by SDS-PAGE and quantitative immunoblotting against CSPα. Representative immunoblots are shown. […] FIG. 3D (right panel) show quantitation of oligomers, palmitoylated CSPα, respectively, in corresponding lane and expressed as a percentage of total. […] Cell extracts were immunoprecipitated using a negative control or anti-Syb-2 antibody, followed by quantitative immunoblotting of the co-IP'd t-SNAREs SNAP-25 and Synt-1. […] In FIGS. 3B-3E data represent means±SEM. *P<0.05; **P<0.01; ***P<0.001; ****P<0.0001 by two-tailed Student's t-test. #P<0.05 by Mann-Whitney-Wilcoxon U test. n.s.=not significant; n.d.=not detected. […]
For SDS-PAGE, 10-15% Laemmli gels (10.3% T and 3.3% C) were used to separate proteins on Bio-Rad apparati. […] Immunoblots were washed 5× with TBS-T and dried, then scanned on Odyssey CLx (LI-COR) and quantified using Image-Studio software (LI-COR). […]

In the case of `CC(=O)N(O)CCCCCNC(=O)CCC(=O)N(O)CCCCCNC(=O)CCC(=O)N(O)CCCCCN` [Dfx, N′-[5-(Acetyl-hydroxy-amino)pentyl]-N-[5-[3-(5-aminopentyl-hydroxy-carbamoyl)propanoylamino]pentyl]-N-hydroxy-butane diamide], in assay [1], the “oligomerization of CSPα^L115R and CSPα^L116Δ” value is reported as “reduced the oligomerization”; the “palmitoylation of CSPα^L115R and CSPα^L116Δ” value was “improved”. Besides, in the assay on SNAP-25, the “augmentation of SNAP-25 levels” value was “approximately two-fold” and the SNAP-25 levels result was “neither L1 nor Dfx affected SNAP-25 levels”.
The like results for `Cc1c(O)c(=O)ccn1C` [L1, 3-hydroxy-1,2-dimethyl-4(1H)-pyridone] were, in that order, “reduced the oligomerization”, “improved”, “approximately two-fold” and “neither L1 nor Dfx affected SNAP-25 levels”.
